ChEMBL document CHEMBL4371025, “Discovery and evaluation of novel FAAH inhibitors in neuropathic pain model” (Bioorg Med Chem Lett, 2019)
The source made the active and inactive calls. No cut-off for these calls is given here.

Legend:
[1] = Intrinsic metabolic stability in human liver microsomes assessed as metabolic turnover rate per mg protein at 1 uM preincubated for 5 mins followed by NADPH cofactor addition and measured after 30 mins by LC-MS/MS analysis; assay type: ADME, Microsome; details: 0.5 h
[2] = Intrinsic metabolic stability in rat liver microsomes assessed as metabolic turnover over per mg protein at 1 uM preincubated for 5 mins followed by NADPH cofactor addition and measured after 30 mins by LC-MS/MS analysis; assay type: ADME, Microsome; details: 0.5 h
[3] = target: T1, Fatty-acid amide hydrolase 1 (Homo sapiens, UniProt O00519); test: Inhibition of human transmembrane domain deficient FFAH expressed in Escherichia coli using AAMCA as substrate incubated for 1 min measured for 50 mins by fluorescence assay
T1 sequence (O00519 whole entry): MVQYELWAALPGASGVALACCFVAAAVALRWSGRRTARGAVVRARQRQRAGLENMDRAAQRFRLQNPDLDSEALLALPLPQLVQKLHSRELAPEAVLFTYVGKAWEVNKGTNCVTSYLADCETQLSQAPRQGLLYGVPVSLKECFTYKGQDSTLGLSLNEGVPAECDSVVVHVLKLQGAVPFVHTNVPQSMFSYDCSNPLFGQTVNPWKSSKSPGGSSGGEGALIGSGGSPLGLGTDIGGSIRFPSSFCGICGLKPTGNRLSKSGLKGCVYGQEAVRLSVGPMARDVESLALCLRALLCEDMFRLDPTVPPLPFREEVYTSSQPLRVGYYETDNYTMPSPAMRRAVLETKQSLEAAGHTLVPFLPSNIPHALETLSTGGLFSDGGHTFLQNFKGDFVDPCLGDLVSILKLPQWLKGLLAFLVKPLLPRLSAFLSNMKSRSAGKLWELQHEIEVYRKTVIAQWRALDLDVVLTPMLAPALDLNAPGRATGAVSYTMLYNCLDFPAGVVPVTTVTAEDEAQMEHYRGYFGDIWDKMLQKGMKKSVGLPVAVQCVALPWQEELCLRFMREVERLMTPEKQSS

[4] = test system: Rattus norvegicus; test: Antihyperalgesic activity in Sprague-Dawley rat model of cisplatin-induced peripheral neuropathy assessed as increase in paw withdrawal latency at 30 mg/kg, po administered as single dose via gavage measured 4 hrs post dose by plantar test; assay type: functional, organism-based
[5] = test system: Rattus norvegicus; test: Antihyperalgesic activity in Sprague-Dawley rat model of cisplatin-induced peripheral neuropathy assessed as increase in paw withdrawal latency at 30 mg/kg, po administered once daily via gavage for 6 days measured 24 hrs post last dose by plantar test; assay type: functional, organism-based
[6] = test system: Rattus norvegicus; test: Antihyperalgesic activity in Sprague-Dawley rat model of cisplatin-induced peripheral neuropathy assessed as increase in paw withdrawal latency at 3 mg/kg, po administered as single dose via gavage measured 4 hrs post dose by plantar test; assay type: functional, organism-based
[7] = test system: Rattus norvegicus; test: Antihyperalgesic activity in Sprague-Dawley rat model of cisplatin-induced peripheral neuropathy assessed as increase in paw withdrawal latency at 30 mg/kg, po administered once daily via gavage for 7 days measured 4 hrs post last dose by plantar test; assay type: functional, organism-based
[8] = target: T2, Fatty-acid amide hydrolase 1 (Rattus norvegicus) (UniProt P97612); test: Inhibition of rat FFAH expressed in Escherichia coli at 10 uM using AAMCA as substrate incubated for 1 min measured for 50 mins by fluorescence assay relative to control
T2 sequence (whole entry): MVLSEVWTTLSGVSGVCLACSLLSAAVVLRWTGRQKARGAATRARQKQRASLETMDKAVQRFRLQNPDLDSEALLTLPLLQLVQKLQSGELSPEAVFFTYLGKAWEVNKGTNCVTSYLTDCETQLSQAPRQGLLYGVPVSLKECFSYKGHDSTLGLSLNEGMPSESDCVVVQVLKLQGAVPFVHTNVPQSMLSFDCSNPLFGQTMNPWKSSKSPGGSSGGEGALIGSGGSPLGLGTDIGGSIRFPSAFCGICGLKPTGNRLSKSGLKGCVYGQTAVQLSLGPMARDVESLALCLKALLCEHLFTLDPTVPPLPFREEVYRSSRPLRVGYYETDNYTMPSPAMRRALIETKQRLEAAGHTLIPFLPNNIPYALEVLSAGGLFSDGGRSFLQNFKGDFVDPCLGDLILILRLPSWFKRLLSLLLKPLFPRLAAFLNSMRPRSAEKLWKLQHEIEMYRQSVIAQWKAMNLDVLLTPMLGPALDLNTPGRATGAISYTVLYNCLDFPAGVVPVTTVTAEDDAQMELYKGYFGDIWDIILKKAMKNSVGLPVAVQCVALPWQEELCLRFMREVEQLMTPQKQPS

[9] = target: T3, Fatty-acid amide hydrolase 1 (Rattus norvegicus, UniProt P97612); test: Inhibition of rat FFAH expressed in Escherichia coli using AAMCA as substrate incubated for 1 min measured for 50 mins by fluorescence assay
T3 sequence (P97612 whole entry): T2 sequence (whole entry)

[10] = AUC (0 to 48 hrs) in Sprague-Dawley rat at 1 mg/kg, iv administered as single dose by LC-MS/MS analysis; assay type: ADME, organism-based; design: dose 1 mg/kg, time < 48 hr, route intravenous; details: in vivo
[11] = Volume of distribution at steady state in Sprague-Dawley rat at 1 mg/kg, iv administered as single dose by LC-MS/MS analysis; assay type: ADME, organism-based; details: in vivo, read-out: Vdss
[12] = Clearance in Sprague-Dawley rat at 1 mg/kg, iv administered as single dose by LC-MS/MS analysis; assay type: ADME, organism-based; details: in vivo
[13] = Elimination half life in Sprague-Dawley rat at 1 mg/kg, iv administered as single dose by LC-MS/MS analysis; assay type: ADME, organism-based; details: in vivo, read-out: beta t1/2 (converted)
[14] = Cmax in Sprague-Dawley rat at 3 mg/kg, po administered as single dose via gavage by LC-MS/MS analysis; assay type: ADME, organism-based; design: dose 3 mg/kg, route oral; details: in vivo
[15] = AUC (0 to 48 hrs) in Sprague-Dawley rat at 3 mg/kg, po administered as single dose via gavage by LC-MS/MS analysis; assay type: ADME, organism-based; design: dose 3 mg/kg, time < 48 hr, route oral; details: in vivo
[16] = Oral bioavailability in Sprague-Dawley rat at 3 mg/kg administered as single dose via gavage by LC-MS/MS analysis; assay type: ADME, organism-based; details: in vivo
[17] = Cmax in Sprague-Dawley rat at 10 mg/kg, po administered as single dose via gavage by LC-MS/MS analysis; assay type: ADME, organism-based; design: dose 10 mg/kg, route oral; details: in vivo
[18] = AUC (0 to 48 hrs) in plasma of Sprague-Dawley rat at 10 mg/kg, po administered as single dose via gavage by LC-MS/MS analysis; assay type: ADME, organism-based; design: time < 48 hr, dose 10 mg/kg, route oral
[19] = Oral bioavailability in Sprague-Dawley rat at 10 mg/kg administered as single dose via gavage by LC-MS/MS analysis; assay type: ADME, organism-based; details: in vivo
[20] = test system: Rattus norvegicus; test: Antihyperalgesic activity in Sprague-Dawley rat model of cisplatin-induced peripheral neuropathy assessed as increase in paw withdrawal latency at 10 mg/kg, po administered once daily via gavage for 7 days measured 4 hrs post last dose by plantar test; assay type: functional, organism-based
[21] = target: T4, Fatty-acid amide hydrolase 1 (Homo sapiens) (UniProt O00519); test: Reversible inhibition of human transmembrane domain deficient FFAH expressed in Escherichia coli assessed as residual activity at 10 times IC50 using AAMCA as substrate preincubated for 1 hr followed by substrate addition and subsequent 10 fold compound dilution by fluorescence assay relative to control
T4 sequence (whole entry): T1 sequence (O00519 whole entry)

[22] = target: T4, Fatty-acid amide hydrolase 1 (Homo sapiens); test: Reversible inhibition of human transmembrane domain deficient FFAH expressed in Escherichia coli assessed as residual activity at 10 times IC50 using AAMCA as substrate preincubated for 1 hr followed by substrate addition by fluorescence assay relative to control
[23] = target: T4, Fatty-acid amide hydrolase 1 (Homo sapiens); test: Substrate activity at human transmembrane domain deficient FFAH expressed in Escherichia coli assessed as parent compound remaining at 2 times IC50 after 15 mins by MS analysis
[24] = target: T4, Fatty-acid amide hydrolase 1 (Homo sapiens); test: Substrate activity at human transmembrane domain deficient FFAH expressed in Escherichia coli assessed as parent compound remaining at 2 times IC50 after 30 mins by MS analysis
[25] = target: T4, Fatty-acid amide hydrolase 1 (Homo sapiens); test: Substrate activity at human transmembrane domain deficient FFAH expressed in Escherichia coli assessed as parent compound remaining at 2 times IC50 after 60 mins by MS analysis
[26] = target: T4, Fatty-acid amide hydrolase 1 (Homo sapiens); test: Substrate activity at human transmembrane domain deficient FFAH expressed in Escherichia coli assessed as parent compound remaining at 2 times IC50 measured immediately by MS analysis

In the case of `O=C(NC1CCC(=Cc2cccc(Oc3ccc(C(F)(F)F)cn3)c2)CC1)c1ccc(-n2nccn2)nc1` (racemic), the Drug metabolism [1] is reported as 0.09 nmol/min/mg and the Drug metabolism [2] is reported as 0.04 nmol/min/mg.

With `O=C(NC1CCC(=Cc2cccc(Oc3ccc(C(F)(F)F)cn3)c2)CC1)c1cccnc1` (racemic) the IC50 [3] was 2.2 nM, the Drug metabolism [1] was 0.06 nmol/min/mg and the Drug metabolism [2] was 0.06 nmol/min/mg.

In the case of `Cc1cc(C(=O)NC2CCC(=Cc3cccc(Oc4ccc(C(F)(F)F)cn4)c3)CC2)cnc1N` (stereo not drawn), the Activity [4] is reported as “Active”, the Activity [5] is reported as “Active” and the Activity [6] is reported as “inactive”. For the same compound, the Activity [7] was “Active”.

`Nc1ccc(C(=O)NC2CCC(=Cc3cccc(Oc4ccc(C(F)(F)F)cn4)c3)CC2)cn1` (stereo not drawn) showed an inhibition [8] of 70%.

For `Nc1ncc(C(=O)NC2CCC(=Cc3cccc(Oc4ccc(C(F)(F)F)cn4)c3)CC2)cn1` (stereo not drawn), the Activity [4] was “Active”, the Activity [5] was “Active” and the Activity [6] was “inactive”. For the same compound, the Activity [7] was “Active”.

Compound `O=C(NC1CCC(=Cc2cccc(Oc3ccc(C(F)(F)F)cn3)c2)CC1)c1cnc2[nH]ccc2c1` (racemic) has an IC50 [9] of 17.2 nM, a Drug metabolism [1] of 0.08 nmol/min/mg and a Drug metabolism [2] of 0.04 nmol/min/mg. For the same compound, the AUC(0-t) at 48 h [10] was 14.3 µM·h, the Vd [11] was 1 L/kg and the clearance [12] was 2.2 mL/min/kg. It also gave a half-life [13] of 7.3 h, a Cmax [14] of 190 nM and an AUC(0-t) at 48 h [15] of 3 µM·h. For the same compound, the bioavailability [16] was 7.2%.

`O=C(NC1CCC(=Cc2cccc(Oc3ccc(C(F)(F)F)cn3)c2)CC1)c1ccc(-n2cccn2)nc1` (racemic) gave an IC50 [3] of 6.7 nM, an IC50 [9] of 6.6 nM and a Drug metabolism [1] of 0.11 nmol/min/mg. The Drug metabolism [2] was 0.09 nmol/min/mg, the AUC(0-t) at 48 h [10] was 8 µM·h and the Vd [11] was 4.6 L/kg. The clearance [12] was 2.4 mL/min/kg, the half-life [13] was greater than 10 h and the Cmax [17] was 90 nM. For the same compound, the AUC(0-t) at 48 h [18] was 0.9 µM·h and the bioavailability [19] was 1.2%.

With `O=C(NC1CCC(=Cc2cccc(Oc3ccc(C(F)(F)F)cn3)c2)CC1)c1cccnn1` (racemic) the IC50 [3] was 9 nM.

`O=C(NC1CCC(=Cc2cccc(Oc3ccc(C(F)(F)F)cn3)c2)CC1)c1ccc(Cl)nc1` (racemic) gave an IC50 [3] of 5.1 nM, an IC50 [9] of 80.7 nM and a Drug metabolism [1] of 0.06 nmol/min/mg. The Drug metabolism [2] was 0.04 nmol/min/mg.

In the case of `O=C(Nc1cccnn1)N1CCC(=Cc2cccc(Oc3ccc(C(F)(F)F)cn3)c2)CC1`, the IC50 [3] is reported as 1.8 nM, the IC50 [9] is reported as 5.7 nM and the Activity [20] is reported as “Active”.

With `O=C(NC1CCC(=Cc2cccc(Oc3ccc(C(F)(F)F)cn3)c2)CC1)c1cc[nH]n1` (racemic) the IC50 [9] was 266 nM.

In the case of `O=C(Nc1cccnc1)N1CCC(Cc2cccc(Oc3ccc(C(F)(F)F)cn3)c2)CC1`, the IC50 [3] is reported as 2.6 nM, the IC50 [9] is reported as 11.5 nM and the Activity [21] is reported as “inactive”. The Activity [22] was 20%, the Activity [23] was 77.2% and the Activity [24] was 54.4%. The Activity [25] was 40.4% and the Activity [26] was 100%.

For `Nc1ccc(C(=O)N[C@H]2CC/C(=C/c3cccc(Oc4ccc(C(F)(F)F)cn4)c3)CC2)cn1` (stereo not drawn), the IC50 [3] was 450 nM.
